{"source": "patent US9682995B2", "about": "“Amino-substituted isothiazoles” (BAYER PHARMA AKTIENGESELLSCHAFT, priority 2013, dated 2017)", "key": {"[1]": {"biological_target": "human Bub1 (Homo sapiens (Human), UniProt O43683)", "sequence (O43683 704-1085)": "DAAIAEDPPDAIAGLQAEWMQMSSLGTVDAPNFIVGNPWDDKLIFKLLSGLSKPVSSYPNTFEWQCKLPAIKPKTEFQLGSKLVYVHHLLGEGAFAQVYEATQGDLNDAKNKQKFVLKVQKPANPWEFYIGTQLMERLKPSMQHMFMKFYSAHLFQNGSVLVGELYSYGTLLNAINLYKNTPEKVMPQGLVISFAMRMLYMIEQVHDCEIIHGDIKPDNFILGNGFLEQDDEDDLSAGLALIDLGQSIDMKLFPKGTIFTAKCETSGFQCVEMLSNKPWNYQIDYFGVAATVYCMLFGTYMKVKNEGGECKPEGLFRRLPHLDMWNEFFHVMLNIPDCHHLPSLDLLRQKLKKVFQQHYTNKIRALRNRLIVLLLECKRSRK", "assay": "Bub1 kinase assay (TR-FRET)", "type": "biochemical", "settings": "10 μM ATP; read-out: Bub1 avg (IC50 [mol/l])", "procedure,_shortened": "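His6-tagged human Bub1 catalytic domain (aa 704-1085, insect-cell expressed, ~200 ng/ml) preincubated with compound 15 min, then reacted 60 min at 22 °C with 10 μM ATP and 1 μM biotinylated peptide (final) in pH 7.5 Tris buffer. Phosphopeptide detected by TR-FRET 665/620 ratio, normalised to no-inhibitor and no-enzyme controls.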"}, "[2]": {"biological_target": "human kinase Mps-1 (Homo sapiens (Human), UniProt P33981)", "sequence (P33981 whole entry)": "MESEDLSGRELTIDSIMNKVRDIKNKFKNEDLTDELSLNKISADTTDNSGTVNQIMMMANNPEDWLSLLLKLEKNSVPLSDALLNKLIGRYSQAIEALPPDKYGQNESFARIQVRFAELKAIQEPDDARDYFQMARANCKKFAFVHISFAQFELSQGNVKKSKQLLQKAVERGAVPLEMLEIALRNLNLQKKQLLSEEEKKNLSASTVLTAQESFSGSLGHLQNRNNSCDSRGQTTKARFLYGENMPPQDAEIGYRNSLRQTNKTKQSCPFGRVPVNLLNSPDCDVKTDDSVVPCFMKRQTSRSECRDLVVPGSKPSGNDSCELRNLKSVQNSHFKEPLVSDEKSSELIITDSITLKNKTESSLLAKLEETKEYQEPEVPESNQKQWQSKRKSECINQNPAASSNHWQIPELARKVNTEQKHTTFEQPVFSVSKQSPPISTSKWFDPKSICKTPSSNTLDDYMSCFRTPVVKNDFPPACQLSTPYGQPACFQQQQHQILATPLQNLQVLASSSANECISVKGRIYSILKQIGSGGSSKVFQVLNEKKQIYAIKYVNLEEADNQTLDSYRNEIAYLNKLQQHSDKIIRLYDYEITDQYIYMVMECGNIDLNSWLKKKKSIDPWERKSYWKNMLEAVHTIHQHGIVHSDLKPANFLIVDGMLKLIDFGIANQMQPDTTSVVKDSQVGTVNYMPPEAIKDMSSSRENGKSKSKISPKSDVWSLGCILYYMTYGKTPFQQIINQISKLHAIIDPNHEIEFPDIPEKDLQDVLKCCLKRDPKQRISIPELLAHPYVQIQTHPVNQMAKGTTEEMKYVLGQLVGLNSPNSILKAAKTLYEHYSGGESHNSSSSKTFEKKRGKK", "assay": "Mps-1 kinase assay (TR-FRET)", "type": "biochemical", "settings": "10 μM ATP; read-out: Mps1 avg (IC50 [mol/l])", "procedure,_shortened": "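GST-tagged full-length human Mps-1 (~0.5 nM) preincubated 15 min with compound, then reacted 60 min at 22 °C with 10 μM ATP and 1 μM biotinylated peptide in Hepes pH 7.7 buffer. Phosphoproduct detected by TR-FRET (Eu anti-phospho-Ser/Thr, SA-XLent); 665/620 ratio normalised to no-inhibitor and no-enzyme controls.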"}}, "data": [{"smiles": "CCOC(=O)c1coc(Nc2snc(C)c2C(=O)Nc2ccc(OC)nc2)n1", "note": "[Example 100, Ethyl 2-({4-[(6-methoxypyridin-3-yl)carbamoyl]-3 methyl-1,2-thiazol-5-yl}amino)-1,3-oxazole-4-carboxylate]", "values": [{"measurement": "IC50", "setting": "[1]", "result": "> 20", "unit": "µM"}, {"measurement": "IC50", "setting": "[2]", "result": "> 20", "unit": "µM"}]}, {"smiles": "COC(=O)c1cncc(Nc2snc(C)c2C(=O)Nc2ccc(OC)nc2)n1", "note": "[Example 101, Methyl 6-({4-[(6-methoxypyridin-3-yl)carbamoyl]-3-methyl-1,2-thiazol-5-yl}amino)pyrazine-2-carboxylate]", "values": [{"measurement": "IC50", "setting": "[1]", "result": "> 20", "unit": "µM"}, {"measurement": "IC50", "setting": "[2]", "result": "> 20", "unit": "µM"}]}, {"smiles": "Cc1nsc(Nc2nc3c(C(F)(F)F)cccc3s2)c1C(=O)Nc1ccc(Cl)c(Cl)c1", "note": "[Example 102, N-(3,4-Dichlorophenyl)-3-methyl-5-{[4-(trifluoromethyl)-1,3-benzothiazol-2-yl]amino}-1,2-thiazole-4-carboxamide]", "values": [{"measurement": "IC50", "setting": "[1]", "result": "> 20", "unit": "µM"}, {"measurement": "IC50", "setting": "[2]", "result": "> 20", "unit": "µM"}]}, {"smiles": "Cc1nsc(Nc2nc3c(C(F)(F)F)ccnc3s2)c1C(=O)Nc1ccc(Cl)c(F)c1", "note": "[Example 103, N-(4-Chloro-3-fluorophenyl)-3-methyl-5-{[7-(trifluoromethyl)[1,3]thiazolo[5,4-b]pyridin-2-yl]amino}-1,2-thiazole-4-carboxamide]", "values": [{"measurement": "IC50", "setting": "[1]", "result": "> 20", "unit": "µM"}, {"measurement": "IC50", "setting": "[2]", "result": "> 20", "unit": "µM"}]}, {"smiles": "Cc1nsc(Nc2cncc(C(=O)N(C)C)n2)c1C(=O)Nc1ccc(F)c(F)c1", "note": "[Example 104, 6-({4-[(3,4-Difluorophenyl)-carbamoyl]-3-methyl-1,2-thiazol-5-yl}amino)-N,N-dimethyl-pyrazine-2-carboxamide]", "values": [{"measurement": "IC50", "setting": "[1]", "result": "> 20", "unit": "µM"}, {"measurement": "IC50", "setting": "[2]", "result": "> 20", "unit": "µM"}]}, {"smiles": "Cc1nsc(Nc2cncc(N(C)C)n2)c1C(=O)Nc1ccc(F)c(F)c1", "note": "[Example 105, N-(3,4-Difluorophenyl)-5-{[6-(dimethylamino)pyrazin-2-yl]amino}-3-methyl-1,2-thiazole-4-carboxamide]", "values": [{"measurement": "IC50", "setting": "[1]", "result": "> 20", "unit": "µM"}, {"measurement": "IC50", "setting": "[2]", "result": 12, "unit": "µM"}]}, {"smiles": "Cc1nsc(Nc2cncc(C(=O)N3CCCC3)n2)c1C(=O)Nc1ccc(F)c(F)c1", "note": "[Example 106, N-(3,4-Difluorophenyl)-3-methyl-5-{[6-(pyrrolidin-1-ylcarbonyl)pyrazin-2-yl]amino}-1,2-thiazole-4-carboxamide]", "values": [{"measurement": "IC50", "setting": "[1]", "result": "> 20", "unit": "µM"}, {"measurement": "IC50", "setting": "[2]", "result": "> 20", "unit": "µM"}]}, {"smiles": "Cc1nsc(Nc2cncc(C(=O)N3CCOCC3)n2)c1C(=O)Nc1ccc(F)c(F)c1", "note": "[Example 107, N-(3,4-Difluorophenyl)-3-methyl-5-{[6-(morpholin-4-ylcarbonyl)pyrazin-2-yl]amino}-1,2-thiazole-4-carboxamide]", "values": [{"measurement": "IC50", "setting": "[1]", "result": "> 20", "unit": "µM"}, {"measurement": "IC50", "setting": "[2]", "result": "> 20", "unit": "µM"}]}, {"smiles": "CNC(=O)c1ccnc(Nc2snc(C)c2C(=O)Nc2ccc(F)c(F)c2)c1", "note": "[Example 108, 2-({4-[(3,4-Difluorophenyl)-carbamoyl]-3-methyl-1,2-thiazol-5-yl}amino)-N-methyliso-nicotinamide]", "values": [{"measurement": "IC50", "setting": "[1]", "result": "> 20", "unit": "µM"}, {"measurement": "IC50", "setting": "[2]", "result": "> 20", "unit": "µM"}]}, {"smiles": "Cc1nsc(Nc2cnc(C(=O)N(C)C)cn2)c1C(=O)Nc1ccc(F)c(F)c1", "note": "[Example 109, 5-({4-[(3,4-Difluorophenyl)carbamoyl]-3-methyl-1,2-thiazol-5-yl}amino)-N,N-dimethylpyrazine-2-carboxamide]", "values": [{"measurement": "IC50", "setting": "[1]", "result": "> 20", "unit": "µM"}, {"measurement": "IC50", "setting": "[2]", "result": "> 20", "unit": "µM"}]}, {"smiles": "Cc1nsc(Nc2ccc(C#N)cn2)c1C(=O)Nc1ccc(OC(C)C)nc1", "note": "[Example 110, 5-[(5-Cyanopyridin-2-yl)amino]-N-(6-isopropoxyridin-3-yl)-3-methyl-1,2-thiazole-4-carboxamide]", "values": [{"measurement": "IC50", "setting": "[1]", "result": "> 20", "unit": "µM"}, {"measurement": "IC50", "setting": "[2]", "result": "> 20", "unit": "µM"}]}, {"smiles": "Cc1nsc(Nc2cnc3ccccc3n2)c1C(=O)Nc1ccc(Oc2ccccc2)nc1", "note": "[Example 112, 3-Methyl-N-(6-phenoxypyridin-3-yl)-5-(quinoxalin-2-ylamino)-1,2-thiazole-4-carboxamide]", "values": [{"measurement": "IC50", "setting": "[1]", "result": "> 20", "unit": "µM"}, {"measurement": "IC50", "setting": "[2]", "result": "> 20", "unit": "µM"}]}, {"smiles": "Cc1nsc(Nc2cnc3ccccc3n2)c1C(=O)Nc1ccc(Oc2ccc(F)cc2F)nc1", "note": "[Example 113, N-[6-(2,4-Difluorophenoxy)pyridin-3-yl]-3-methyl-5-(quinoxalin-2-ylamino)-1,2-thiazole-4-carboxamide]", "values": [{"measurement": "IC50", "setting": "[1]", "result": "> 20", "unit": "µM"}, {"measurement": "IC50", "setting": "[2]", "result": "> 20", "unit": "µM"}]}, {"smiles": "Cc1nsc(Nc2cnc3ccccc3n2)c1C(=O)Nc1ccc(OC2CCCCC2)nc1", "note": "[Example 115, N-[6-(Cyclohexyloxy)pyridin-3-yl]-3-methyl-5-(quinoxalin-2-ylamino)-1,2-thiazole-4-carboxamide]", "values": [{"measurement": "IC50", "setting": "[1]", "result": "> 20", "unit": "µM"}, {"measurement": "IC50", "setting": "[2]", "result": "> 20", "unit": "µM"}]}, {"smiles": "COc1ccc(Oc2ccc(NC(=O)c3c(C)nsc3Nc3cnc4ccccc4n3)cn2)cc1", "note": "[Example 116, N-[6-(4-Methoxyphenoxy)pyridin-3-yl]-3-methyl-5-(quinoxaline-2-ylamino)-1,2-thiazole-4-carboxamide]", "values": [{"measurement": "IC50", "setting": "[1]", "result": "> 20", "unit": "µM"}, {"measurement": "IC50", "setting": "[2]", "result": 3.6, "unit": "µM"}]}, {"smiles": "COc1ccc(Oc2ccc(NC(=O)c3c(C)nsc3Nc3cc(C#N)ccn3)cn2)cc1", "note": "[Example 117, 5-[(4-Cyanopyridin-2-yl)amino]-N-[6-(4-methoxyphenoxy)pyridin-3-yl]-3-methyl-1,2-thiazole-4-carboxamide]", "values": [{"measurement": "IC50", "setting": "[1]", "result": "> 20", "unit": "µM"}, {"measurement": "IC50", "setting": "[2]", "result": "> 20", "unit": "µM"}]}, {"smiles": "Cc1nsc(Nc2cc(C#N)ccn2)c1C(=O)Nc1ccc(OC2CCCCC2)nc1", "note": "[Example 118, 5-[(4-Cyanopyridin-2-yl)amino]-N-[6-(cyclohexyloxy)pyridin-3-yl]-3-methyl-1,2-thiazole-4-carboxamide]", "values": [{"measurement": "IC50", "setting": "[1]", "result": "> 20", "unit": "µM"}, {"measurement": "IC50", "setting": "[2]", "result": "> 20", "unit": "µM"}]}, {"smiles": "CCOc1ccc(NC(=O)c2c(C)nsc2Nc2cnc3ccccc3n2)cn1", "note": "[Example 119, N-(6-Ethoxypyridin-3-yl)-3-methyl-5-(quinoxalin-2-ylamino)-1,2-thiazole-4-carboxamide]", "values": [{"measurement": "IC50", "setting": "[1]", "result": "> 20", "unit": "µM"}, {"measurement": "IC50", "setting": "[2]", "result": "> 20", "unit": "µM"}]}, {"smiles": "COc1ncc(NC(=O)c2c(C)nsc2Nc2ccc(C#N)cn2)cc1C", "note": "[Example 120, 5-[(5-Cyanopyridin-2-yl)amino]-N-(6-methoxy-5-methylpyridin-3-yl)-3-methyl-1,2-thiazole-4-carboxamide]", "values": [{"measurement": "IC50", "setting": "[1]", "result": "> 20", "unit": "µM"}, {"measurement": "IC50", "setting": "[2]", "result": "> 20", "unit": "µM"}]}, {"smiles": "COc1ncc(NC(=O)c2c(C)nsc2Nc2cnc3ccccc3n2)cc1C", "note": "[Example 121, N-(6-Methoxy-5-methylpyridin-3-yl)-3-methyl-5-(quinoxalin-2-ylamino)-1,2-thiazole-4-carboxamide]", "values": [{"measurement": "IC50", "setting": "[1]", "result": "> 20", "unit": "µM"}, {"measurement": "IC50", "setting": "[2]", "result": "> 20", "unit": "µM"}]}, {"smiles": "Cc1nsc(Nc2cnc3ccccc3n2)c1C(=O)Nc1ccc(OC(C)C)nc1", "note": "[Example 122, N-(6-Isopropoxypyridin-3-yl)-3-methyl-5-(quinoxalin-2-ylamino)-1,2-thiazole-4-carboxamide]", "values": [{"measurement": "IC50", "setting": "[1]", "result": "> 20", "unit": "µM"}, {"measurement": "IC50", "setting": "[2]", "result": "> 20", "unit": "µM"}]}]}
